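Values below derive from 48-hour exposures of cells grown in 96-well plates, with endpoints linearly interpolated between the two concentrations bracketing the appropriate inhibition level. At the GI50, growth is halved.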 Active and inactive are the calls of the source. Rule as the data show it: active = GI50 up to about 1.1 µM and inactive = higher.
Tests used:
Assay in all cases: NCI tumour cell line growth inhibition, 48 h
NCI-H522 = system: NCI-H522
A549 = system: A549
K562 = system: K562
SF-295 = system: SF-295
SNB-75 = system: SNB-75
SK-MEL-2 = system: SK-MEL-2
SW-620 = system: SW-620
ACHN = system: ACHN
Malme-3M = system: Malme-3M
HL-60 = system: HL-60
SF-539 = system: SF-539
OVCAR-4 = system: OVCAR-4
HOP-62 = system: HOP-62
U-251 = system: U-251
LOX IMVI = system: LOX IMVI
NCI-H23 = system: NCI-H23
CCRF-CEM = system: CCRF-CEM
HT-29 = system: HT-29
RXF 393 = system: RXF 393
RPMI-8226 = system: RPMI-8226

Structure (SMILES) | GI50 (NCI-H522) | GI50 (A549) | GI50 (K562) | GI50 (SF-295) | GI50 (SNB-75) | GI50 (SK-MEL-2) | GI50 (SW-620) | GI50 (ACHN) | GI50 (Malme-3M) | GI50 (HL-60) | GI50 (SF-539) | GI50 (OVCAR-4) | GI50 (HOP-62) | GI50 (U-251) | GI50 (LOX IMVI) | GI50 (NCI-H23) | GI50 (CCRF-CEM) | GI50 (HT-29) | GI50 (RXF 393) | GI50 (RPMI-8226)
CC12CCC(O)CC1CCC1C2CCC2(C)C(C(=O)CC(O)C(F)(F)F)CCC12 (stereo not given) | 27.1 µM (inactive) | 28.9 µM (inactive) | 3.8 µM (inactive) | 8.73 µM (inactive) | 19.3 µM (inactive) | 32.1 µM (inactive) | 40.5 µM (inactive) | 47.6 µM (inactive) | 51.3 µM (inactive) | 9.02 µM (inactive) | 35.2 µM (inactive) | > 100 µM (inactive) | 27.7 µM (inactive) | 26.2 µM (inactive) | 7 µM (inactive) | 40.9 µM (inactive) | 25.6 µM (inactive) | 3.97 µM (inactive) | 7.87 µM (inactive) | 4.04 µM (inactive)
CC(=O)c1nccc2c1c(C)nc1ccccc12 | 47.5 µM (inactive) | 65 µM (inactive) | 71.3 µM (inactive) | 53.7 µM (inactive) | > 100 µM (inactive) | > 100 µM (inactive) | > 100 µM (inactive) | > 100 µM (inactive) | > 100 µM (inactive) | 67.8 µM (inactive) | > 100 µM (inactive) | > 100 µM (inactive) | 69.8 µM (inactive) | > 100 µM (inactive) | 57 µM (inactive) | 79.8 µM (inactive) | 16.4 µM (inactive) | 74.5 µM (inactive) | 38.5 µM (inactive) | 16.4 µM (inactive)
Cc1cc(S(=O)(=O)Nc2nncn2-c2ccc(Cl)cc2)c(S)cc1Cl | > 10 µM (inactive) | > 10 µM (inactive) | > 10 µM (inactive) | > 10 µM (inactive) | > 10 µM (inactive) | > 10 µM (inactive) | > 10 µM (inactive) | > 10 µM (inactive) | > 10 µM (inactive) | > 10 µM (inactive) | > 10 µM (inactive) | > 10 µM (inactive) | > 10 µM (inactive) | > 10 µM (inactive) | > 10 µM (inactive) | > 10 µM (inactive) | > 10 µM (inactive) | > 10 µM (inactive) | > 10 µM (inactive) | > 10 µM (inactive)
CN(CCN(C)CCN(C)C(=O)Cc1ccc(Cl)c(Cl)c1)CCN1CCCC1 | 20.6 µM (inactive) | 37 µM (inactive) | 3.24 µM (inactive) | 19.6 µM (inactive) | 28 µM (inactive) | 16 µM (inactive) | 20.3 µM (inactive) | 45.9 µM (inactive) | 20.5 µM (inactive) | 18.2 µM (inactive) | 21.8 µM (inactive) | 77.6 µM (inactive) | 25.4 µM (inactive) | 19 µM (inactive) | 16.6 µM (inactive) | 30.5 µM (inactive) | 11.6 µM (inactive) | 7.36 µM (inactive) | 16.2 µM (inactive) | 5.5 µM (inactive)
COC1=C(C(c2cc(OC)c(OC)c(OC)c2)c2cc3c(cc2OC)OCO3)C(=O)OC1 (stereo not given) | 7.8 µM (inactive) | 20.1 µM (inactive) | 15 µM (inactive) | 15.1 µM (inactive) | > 37.9 µM (inactive) | 45.2 µM (inactive) | 27 µM (inactive) | 26.7 µM (inactive) | 31.7 µM (inactive) | 8.55 µM (inactive) | 15.4 µM (inactive) | 30.4 µM (inactive) | 24.8 µM (inactive) | 33.3 µM (inactive) | 10 µM (inactive) | 24.8 µM (inactive) | 21.4 µM (inactive) | 20.5 µM (inactive) | 11.7 µM (inactive) | 46 µM (inactive)
C=C(Nc1ccc(OC)cc1OC)C(=O)Cc1cccc[n+]1[O-] | > 100 µM (inactive) | > 100 µM (inactive) | > 100 µM (inactive) | > 100 µM (inactive) | > 100 µM (inactive) | > 100 µM (inactive) | > 100 µM (inactive) | > 100 µM (inactive) | > 100 µM (inactive) | > 100 µM (inactive) | > 100 µM (inactive) | > 100 µM (inactive) | > 100 µM (inactive) | > 100 µM (inactive) | > 100 µM (inactive) | > 100 µM (inactive) | > 100 µM (inactive) | > 100 µM (inactive) | > 100 µM (inactive) | > 100 µM (inactive)
CNNC(=NS(=O)(=O)c1cc(C#N)c(NNC)cc1S)NNC | > 10 µM (inactive) | > 10 µM (inactive) | > 10 µM (inactive) | > 10 µM (inactive) | > 10 µM (inactive) | > 10 µM (inactive) | > 10 µM (inactive) | > 10 µM (inactive) | > 10 µM (inactive) | > 10 µM (inactive) | > 10 µM (inactive) | > 10 µM (inactive) | > 10 µM (inactive) | > 10 µM (inactive) | > 10 µM (inactive) | > 10 µM (inactive) | > 10 µM (inactive) | > 10 µM (inactive) | > 10 µM (inactive) | > 10 µM (inactive)
CC#C[C@@]1(O)CCCC[C@@H]1O | > 100 µM (inactive) | > 100 µM (inactive) | > 100 µM (inactive) | > 100 µM (inactive) | > 100 µM (inactive) | > 100 µM (inactive) | > 100 µM (inactive) | > 100 µM (inactive) | > 100 µM (inactive) | > 100 µM (inactive) | > 100 µM (inactive) | > 100 µM (inactive) | > 100 µM (inactive) | > 100 µM (inactive) | > 100 µM (inactive) | > 100 µM (inactive) | > 100 µM (inactive) | > 100 µM (inactive) | > 100 µM (inactive) | > 100 µM (inactive)
CN(/N=C/c1cccc2cccnc12)c1ccc([N+](=O)[O-])cc1[N+](=O)[O-] | 16.4 µM (inactive) | 48.5 µM (inactive) | > 100 µM (inactive) | 13 µM (inactive) | 10.1 µM (inactive) | 14.9 µM (inactive) | 99.5 µM (inactive) | 22 µM (inactive) | 18.2 µM (inactive) | 40.8 µM (inactive) | 11.3 µM (inactive) | 20.7 µM (inactive) | 8.61 µM (inactive) | 13.9 µM (inactive) | 57.9 µM (inactive) | 24.5 µM (inactive) | > 96.6 µM (inactive) | > 100 µM (inactive) | 17.1 µM (inactive) | > 90.2 µM (inactive)
COc1cc2c(cc1O)CC[C@@H]1C2CC[C@@]2(C)C1CC[C@@H]2O (stereo not given in full) | 0.482 µM (active) | 4.48 µM (inactive) | 0.312 µM (active) | 3.16 µM (inactive) | 1.07 µM (active) | 1.32 µM (inactive) | 0.635 µM (active) | 9.84 µM (inactive) | 0.771 µM (active) | 0.47 µM (active) | 0.807 µM (active) | 29.6 µM (inactive) | 2.28 µM (inactive) | 1.16 µM (inactive) | 2.89 µM (inactive) | 2.05 µM (inactive) | 0.689 µM (active) | 21 µM (inactive) | 6.24 µM (inactive) | 0.57 µM (active)
CN(C)C(=S)SCC(N)=O | > 100 µM (inactive) | > 100 µM (inactive) | > 100 µM (inactive) | > 100 µM (inactive) | < 0.01 µM (active) | > 100 µM (inactive) | > 100 µM (inactive) | > 100 µM (inactive) | > 100 µM (inactive) | > 100 µM (inactive) | > 100 µM (inactive) | > 100 µM (inactive) | > 100 µM (inactive) | > 100 µM (inactive) | > 100 µM (inactive) | > 100 µM (inactive) | > 100 µM (inactive) | > 100 µM (inactive) | > 100 µM (inactive) | > 100 µM (inactive)
COc1ccc(NC(=O)C(=O)NO)c(OC)c1 | 5.92 µM (inactive) | 19.6 µM (inactive) | 19.8 µM (inactive) | 14 µM (inactive) | 16.5 µM (inactive) | 16.1 µM (inactive) | 18.7 µM (inactive) | 15.9 µM (inactive) | 23.8 µM (inactive) | 17.1 µM (inactive) | 20.9 µM (inactive) | 17.7 µM (inactive) | 19.9 µM (inactive) | 16.7 µM (inactive) | 14.2 µM (inactive) | 18.6 µM (inactive) | 23 µM (inactive) | 20.7 µM (inactive) | 15.6 µM (inactive) | 15.1 µM (inactive)
Cc1ncc([N+](=O)[O-])n1CC[N+](C)([O-])CCCCn1ccnc1[N+](=O)[O-] (stereo not given) | > 100 µM (inactive) | > 100 µM (inactive) | > 100 µM (inactive) | > 100 µM (inactive) | > 100 µM (inactive) | > 100 µM (inactive) | > 100 µM (inactive) | > 100 µM (inactive) | > 100 µM (inactive) | > 100 µM (inactive) | > 100 µM (inactive) | > 100 µM (inactive) | > 100 µM (inactive) | > 100 µM (inactive) | > 100 µM (inactive) | > 100 µM (inactive) | > 100 µM (inactive) | > 100 µM (inactive) | > 100 µM (inactive) | > 100 µM (inactive)
COc1ccc(-c2cc(=O)c3c(OC)c(O)c(OC)cc3o2)cc1 | 17.9 µM (inactive) | 42.5 µM (inactive) | 52.4 µM (inactive) | 30.8 µM (inactive) | 21.8 µM (inactive) | 57.1 µM (inactive) | 54.3 µM (inactive) | 30.5 µM (inactive) | 96.2 µM (inactive) | 52 µM (inactive) | 77.4 µM (inactive) | 40.4 µM (inactive) | 38.1 µM (inactive) | 63.1 µM (inactive) | 36.9 µM (inactive) | 48.5 µM (inactive) | 38.4 µM (inactive) | 35.5 µM (inactive) | 36.6 µM (inactive) | 27.8 µM (inactive)

Reference: ChEMBL document CHEMBL1201862, “PubChem BioAssay data set” (2004)
